Data as given in US10052331B2, “3-(3H-imidazo[4,5-C]pyridin-2-yl)-1H-pyrazolo[3,4-C]pyridine and therapeutic uses thereof” (Samumed, LLC, priority 2014, dated 2018).

Key:
Format in all cases: cell-based
[1] = test system: Wnt activity (Wnt-responsive Sp5 promoter-luciferase reporter in SW480 cells); experiment: Wnt activity screening assay: Sp5-Luc reporter gene in SW480 colon carcinoma cells; details: Homo sapiens
In short: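 IC50 values come from variable-slope four-parameter fits of luciferase signal normalized to DMSO wells. Stable Sp5-Luc reporter SW480 colon carcinoma cells were exposed to compounds in a 3-fold dilution series (source plates from 10 mM stock) for forty-two hours at 37 °C.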

[2] = test system: primary human fibroblasts derived from IPF patients (LL29 cells); experiment: Inhibition of fibrotic process: αSMA staining in TGF-β1-treated primary human fibroblasts from IPF patients (LL29 cells); details: Fibroblast, 96 h, LL29 cells treated with TGF-β1 (20 ng/mL), 4 days, 11-point dose-response from 10 μM to 1.87 nM, read-out: Inhibition of fibrosis EC50
In short: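 LL29 IPF lung fibroblasts in F12 with 1% FBS, compound (11-point, 10 μM to 1.87 nM, 0.1% DMSO) plus TGF-β1 20 ng/mL for 4 days at 37° C. αSMA-positive % of SYTOX-negative cells by immunofluorescence imaging, normalized to TGF-β1 wells; EC50 from non-linear regression of triplicates.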

[3] = test system: primary human mesenchymal stem cells (hMSCs); experiment: Chondrogenesis induction in primary human mesenchymal stem cells (nodule imaging, Rhodamine B/Nile Red); details: 144 h, 6 days; for EC (100% TGF-beta3 activity): concentration required to induce chondrogenesis equivalent to TGF-β3 positive control, read-out: Conc (nM) of 100% TGF-β3 activity; for Emax: relative to TGF-β3 (10 ng/mL) positive control, read-out: Max. Activity as % TGF-β3 activity
Procedure: The above synthesized compounds were screened using primary human mesenchymal stem cells (hMSCs) to determine their ability to induce chondrogenesis (process by which cartilage is developed).
Primary human mesenchymal stem cells (hMSCs) were purchased from Lonza (Walkersville, Md.) and expanded in Mesenchymal Stem Cell Growth Media (Lonza). Cells between passage 3 and 6 were used for the experiments.
Each compound was dissolved in DMSO as a 10 mM stock and used to prepare compound source plates. Serial dilution (1:3, 6-point dose-response curves from 2700 nM to 10 nM) and compound transfer was performed using the ECHO 550 (Labcyte, Sunnyvale, Calif.) into 96-well clear bottom assay plates (Greiner Bio-One) with appropriate DMSO backfill for a final DMSO concentration of 0.03%. hMSCs were plated at 20,000 cells/well in 250 μL/well Incomplete Chondrogenic Induction Medium (Lonza; DMEM, dexamethasone, ascorbate, insulin-transferrin-selenium [ITS supplement], gentamycin-amphotericin [GA-1000], sodium pyruvate, proline and L-glutamine). TGF-β3 (10 ng/mL) was used as a positive control for differentiation while negative control wells were treated with 75 nL DMSO for normalization and calculating EC50 values. Cells were incubated at 37° C. and 5% CO2 for 6 days. To image chondrogenic nodules, the cells were fixed using 4% formaldehyde (Electron Microscopy Sciences), and stained with 2 μg/mL Rhodamine B (Sigma-Aldrich) and 20 μM Nile Red (Sigma-Aldrich) [Johnson K., et. al, A Stem Cell-Based Approach to Cartilage Repair, Science, (2012), 336(6082), 717-721]. The nodules imaged (4 images per well at 4× magnification) by excitation at 531 nm and emission at 625 nm and quantified using the CellInsight CX5 (Thermo Scientific). Number of nodules in each well was normalized to the average of 3 DMSO treated wells on the same plate using Excel (Microsoft Inc.). The normalized averages (fold change over DMSO) of 3 replicate wells for each compound concentration were calculated. Due to solubility limitations of some of the compounds, curve fitting was incomplete leading to inaccurate EC50 determinations.
Using TGF-03 as a positive control, the concentration of test compounds required to induce equivalent levels of chondrogenesis is reported. In addition, the maximum activity of each compound and the respective dose that each compound reached maximum chondrogenesis activity is reported.

ARPE-19 cells = experiment: Transdifferentiation of ARPE-19 cells into eye neuronal cells [photoreceptors] (PAX6 staining); details: Homo sapiens, 40 hours, normalized to DMSO
Procedure: The above synthesized compounds were screened using ARPE-19 cells [a spontaneously arising retinal pigment epithelia (RPE) cell line] to determine their ability to transdifferentiate ARPE-19 into eye neuronal cells [photoreceptors].
ARPE-19 cells are cultured in standard culture medium containing Dulbecco's Modified Eagle's Medium and Ham's F12 Nutrient Mixture (DMEM/F12) mix (1:1)+GlutaMax with 1% penicillin-Streptomycin and 10% FBS (Fetal Bovine Serum). Cells are incubated at 37° C. with 5% CO2. Cells are trypsinized and plated onto 384-well pre-spotted plate at a density of 3000 cells/well in 50 uL of media. Plating media: DMEM/F12 (1:1)+3% charcoal filtered-FBS+GlutaMax+1% pen/Strep. Cells are incubated at 37° C. with 5% CO2. At 40 hours, cells were fixed for 15 min with 10% Buffered Formalin. Cells were then washed 3 times with PBS for 5 min each, permeablize using 0.3% Triton X-100 in 1×PBS for 30 min, block for 1 hr with 2% BSA in 1×PBS with 0.1% Triton X-100. The primary antibody (1:100 PAX6 Santa Cruz Biotech; sc-81649) was diluted and 10 μL/well was added to the cells. The cells were incubated overnight at 4° C. […] Readings were normalized to DMSO only treated cells, and normalized activities were utilized for EC50 calculations using the dose-response log (activator) vs. response-variable slope (four parameters) nonlinear regression feature available in GraphPad Prism 5.0 or 6.0.

| Structure (SMILES) | IC50 [1] [nM] | EC50 [2] [nM] | EC (100% TGF-beta3 activity) [3] [nM] | Emax [3] [%] | EC50 (ARPE-19 cells) [nM] |
| --- | --- | --- | --- | --- | --- |
| Cc1ccc(-c2cncc3[nH]c(-c4n[nH]c5cnc(-c6cncc(N)c6)cc45)nc23)s1 [Compound 341, 5-(3-(7-(5-Methylthiophen-2-yl)-3H-imidazo[4,5-c]pyridin-2-yl)-1H-pyrazolo[3,4-c]pyridin-5-yl)pyridin-3-amine] | 5.8 | ≤ 9 | 162 | 100 |  |
| Cc1ccc(-c2cncc3[nH]c(-c4n[nH]c5cnc(-c6cncc(NC(=O)C7CCC7)c6)cc45)nc23)s1 [Compound 358, N-(5-(3-(7-(5-Methylthiophen-2-yl)-3H-imidazo[4,5-c]pyridin-2-yl)-1H-pyrazolo[3,4-c]pyridin-5-yl)pyridin-3-yl)cyclobutanecarboxamide] | 6.7 | 19 | 231 | 100 |  |
| CCCC(=O)Nc1cncc(-c2cc3c(-c4nc5c(-c6cc(F)cc(CNS(C)(=O)=O)c6)cncc5[nH]4)n[nH]c3cn2)c1 [Compound 407, N-(5-(3-(7-(3-Fluoro-5-(methylsulfonamidomethyl)phenyl)-3H-imidazo[4,5-c]pyridin-2-yl)-1H-pyrazolo[3,4-c]pyridin-5-yl)pyridin-3-yl)butyramide] | 23.9 | > 10000 | 79.2 | 30 |  |
| Cn1cc(-c2cc3c(-c4nc5c(-c6cccc(F)c6)cncc5[nH]4)n[nH]c3cn2)cn1 [Compound 888, 3-(7-(3-Fluorophenyl)-3H-imidazo[4,5-c]pyridin-2-yl)-5-(1-methyl-1H-pyrazol-4-yl)-1H-pyrazolo[3,4-c]pyridine] | 70 | ≤ 9 | 71 | 100 |  |
| NC1CN(c2cncc(-c3cc4c(-c5nc6c(-c7cccc(F)c7)cncc6[nH]5)n[nH]c4cn3)n2)C1 [Compound 890, 1-(6-(3-(7-(3-Fluorophenyl)-3H-imidazo[4,5-c]pyridin-2-yl)-1H-pyrazolo[3,4-c]pyridin-5-yl)pyrazin-2-yl)azetidin-3-amine] | 103 | 88 |  |  | 9 |
| CN(C)CCOc1cncc(-c2cc3c(-c4nc5c(-c6cccc(F)c6)cncc5[nH]4)n[nH]c3cn2)c1 [Compound 895, 2-((5-(3-(7-(3-Fluorophenyl)-3H-imidazo[4,5-c]pyridin-2-yl)-1H-pyrazolo[3,4-c]pyridin-5-yl)pyridin-3-yl)oxy)-N,N-dimethylethan-1-amine] | 437 | ≥ 9990 |  |  | 162 |
| COc1cncc(-c2cc3c(-c4nc5c(-c6cccc(F)c6)cncc5[nH]4)n[nH]c3cn2)c1 [Compound 896, 3-(7-(3-Fluorophenyl)-3H-imidazo[4,5-c]pyridin-2-yl)-5-(5-methoxypyridin-3-yl)-1H-pyrazolo[3,4-c]pyridine] | 31 | ≤ 9 | 140 | 300 |  |
